Measurements: PubChem BioAssay (NCI)
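Test compounds were applied to cells in 96-well plates for 48 hours at 5 doses. At the GI50, growth is halved. TGI: concentration producing complete growth inhibition.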

Legend:
Assay in all cases: NCI anticancer screen, dose series, 48 h
SNB-19 CNS = system: SNB-19 CNS
OVCAR-4 ovarian = system: OVCAR-4 ovarian
MDA-MB-231 breast = system: MDA-MB-231 breast
COLO 205 colon = system: COLO 205 colon
U251 CNS = system: U251 CNS
UO-31 renal = system: UO-31 renal
CCRF-CEM leukemia = system: CCRF-CEM leukemia
NCI/ADR-RES ovarian = system: NCI/ADR-RES ovarian
SR leukemia = system: SR leukemia
786-0 renal = system: 786-0 renal
OVCAR-3 ovarian = system: OVCAR-3 ovarian
CAKI-1 renal = system: CAKI-1 renal
MDA-MB-435 = system: MDA-MB-435
PC-3 prostate = system: PC-3 prostate
KM12 colon = system: KM12 colon
DU-145 prostate = system: DU-145 prostate
MALME-3M melanoma = system: MALME-3M melanoma
IGROV1 ovarian = system: IGROV1 ovarian
M14 melanoma = system: M14 melanoma
UACC-62 melanoma = system: UACC-62 melanoma
K-562 leukemia = system: K-562 leukemia
RPMI-8226 leukemia = system: RPMI-8226 leukemia
NCI-H23 lung = system: NCI-H23 lung
NCI-H226 lung = system: NCI-H226 lung
HL-60(TB) leukemia = system: HL-60(TB) leukemia
SN12C renal = system: SN12C renal
HS 578T breast = system: HS 578T breast
MOLT-4 leukemia = system: MOLT-4 leukemia
OVCAR-8 ovarian = system: OVCAR-8 ovarian
TK-10 renal = system: TK-10 renal
RXF 393 renal = system: RXF 393 renal
SK-MEL-28 melanoma = system: SK-MEL-28 melanoma
LOX IMVI melanoma = system: LOX IMVI melanoma
SK-OV-3 ovarian = system: SK-OV-3 ovarian
A498 renal = system: A498 renal
NCI-H460 lung = system: NCI-H460 lung
SF-268 CNS = system: SF-268 CNS
SF-539 CNS = system: SF-539 CNS
NCI-H522 lung = system: NCI-H522 lung
UACC-257 melanoma = system: UACC-257 melanoma
EKVX NSCLC = system: EKVX NSCLC
HCT-116 colon = system: HCT-116 colon
SK-MEL-5 melanoma = system: SK-MEL-5 melanoma
SF-295 CNS = system: SF-295 CNS
T-47D breast = system: T-47D breast
HOP-62 NSCLC = system: HOP-62 NSCLC
MCF7 breast = system: MCF7 breast
OVCAR-5 ovarian = system: OVCAR-5 ovarian
A549 NSCLC = system: A549 NSCLC
SW-620 colon = system: SW-620 colon

**Q.** With `Cc1cccc(NC2=C(Cl)C(=O)N(Cc3ccc(Cl)cc3)C2=O)c1` as the compound, how does the GI50 (SNB-19 CNS) read?
**A.** 2.94 µM

**Q.** What about the TGI (SNB-19 CNS) of the same compound?
**A.** 25.8 µM

**Q.** What about the GI50 (OVCAR-4 ovarian) of the same compound?
**A.** 3.84 µM

**Q.** What about the TGI (OVCAR-4 ovarian) of the same compound?
**A.** 40.4 µM

**Q.** And the GI50 (MDA-MB-231 breast)?
**A.** 2.27 µM

**Q.** What about the TGI (MDA-MB-231 breast) of the same compound?
**A.** 8.77 µM

**Q.** And the GI50 (COLO 205 colon)?
**A.** 3.08 µM

**Q.** What about the TGI (COLO 205 colon) of the same compound?
**A.** 15 µM

**Q.** And the GI50 (U251 CNS)?
**A.** 4.08 µM

**Q.** And the TGI (U251 CNS)?
**A.** > 100 µM

**Q.** What about the GI50 (UO-31 renal) of the same compound?
**A.** 11.9 µM

**Q.** What about the TGI (UO-31 renal) of the same compound?
**A.** > 100 µM

**Q.** What about the GI50 (CCRF-CEM leukemia) of the same compound?
**A.** 0.214 µM

**Q.** And the TGI (CCRF-CEM leukemia)?
**A.** 1.78 µM

**Q.** And the GI50 (NCI/ADR-RES ovarian)?
**A.** 1.56 µM

**Q.** What about the TGI (NCI/ADR-RES ovarian) of the same compound?
**A.** 8.03 µM

**Q.** And the GI50 (SR leukemia)?
**A.** 1.79 µM

**Q.** What about the TGI (SR leukemia) of the same compound?
**A.** 4.88 µM

**Q.** And the GI50 (786-0 renal)?
**A.** 2.16 µM

**Q.** And the TGI (786-0 renal)?
**A.** 14.8 µM

**Q.** What about the GI50 (OVCAR-3 ovarian) of the same compound?
**A.** 7.19 µM

**Q.** And the TGI (OVCAR-3 ovarian)?
**A.** 21 µM

**Q.** What about the GI50 (CAKI-1 renal) of the same compound?
**A.** 4.61 µM

**Q.** And the TGI (CAKI-1 renal)?
**A.** 24.6 µM

**Q.** What about the GI50 (MDA-MB-435) of the same compound?
**A.** 4.74 µM

**Q.** And the TGI (MDA-MB-435)?
**A.** 19 µM

**Q.** And the GI50 (PC-3 prostate)?
**A.** 2.1 µM

**Q.** And the TGI (PC-3 prostate)?
**A.** 8.67 µM

**Q.** And the GI50 (KM12 colon)?
**A.** 3.27 µM

**Q.** What about the TGI (KM12 colon) of the same compound?
**A.** 16.9 µM

**Q.** And the GI50 (DU-145 prostate)?
**A.** 9.97 µM

**Q.** And the TGI (DU-145 prostate)?
**A.** 60.2 µM

**Q.** And the GI50 (MALME-3M melanoma)?
**A.** 3.25 µM

**Q.** What about the TGI (MALME-3M melanoma) of the same compound?
**A.** 22.7 µM

**Q.** What about the GI50 (IGROV1 ovarian) of the same compound?
**A.** 2.25 µM

**Q.** What about the TGI (IGROV1 ovarian) of the same compound?
**A.** 12.1 µM

**Q.** What about the GI50 (M14 melanoma) of the same compound?
**A.** 4.33 µM

**Q.** What about the TGI (M14 melanoma) of the same compound?
**A.** 19.9 µM

**Q.** And the GI50 (UACC-62 melanoma)?
**A.** 4.89 µM

**Q.** And the TGI (UACC-62 melanoma)?
**A.** 29.9 µM

**Q.** And the GI50 (K-562 leukemia)?
**A.** 3.63 µM

**Q.** And the TGI (K-562 leukemia)?
**A.** 13.9 µM

**Q.** And the GI50 (RPMI-8226 leukemia)?
**A.** 1.07 µM

**Q.** What about the TGI (RPMI-8226 leukemia) of the same compound?
**A.** 3.2 µM

**Q.** And the GI50 (NCI-H23 lung)?
**A.** 1.64 µM

**Q.** What about the TGI (NCI-H23 lung) of the same compound?
**A.** 10.7 µM

**Q.** And the GI50 (NCI-H226 lung)?
**A.** 1.2 µM

**Q.** And the TGI (NCI-H226 lung)?
**A.** 8.04 µM

**Q.** What about the GI50 (HL-60(TB) leukemia) of the same compound?
**A.** 4.83 µM

**Q.** What about the TGI (HL-60(TB) leukemia) of the same compound?
**A.** 20.3 µM

**Q.** And the GI50 (SN12C renal)?
**A.** 4.37 µM

**Q.** What about the TGI (SN12C renal) of the same compound?
**A.** 43.6 µM

**Q.** What about the GI50 (HS 578T breast) of the same compound?
**A.** 7.35 µM

**Q.** What about the TGI (HS 578T breast) of the same compound?
**A.** 37.3 µM

**Q.** And the GI50 (MOLT-4 leukemia)?
**A.** 3.14 µM

**Q.** And the TGI (MOLT-4 leukemia)?
**A.** 12.4 µM

**Q.** And the GI50 (OVCAR-8 ovarian)?
**A.** 6.46 µM

**Q.** And the TGI (OVCAR-8 ovarian)?
**A.** 23.8 µM

**Q.** And the GI50 (TK-10 renal)?
**A.** 3.8 µM

**Q.** And the TGI (TK-10 renal)?
**A.** 21 µM

**Q.** What about the GI50 (RXF 393 renal) of the same compound?
**A.** 7.72 µM

**Q.** And the TGI (RXF 393 renal)?
**A.** 27.6 µM

**Q.** And the GI50 (SK-MEL-28 melanoma)?
**A.** 3.88 µM

**Q.** And the TGI (SK-MEL-28 melanoma)?
**A.** 22.8 µM

**Q.** What about the GI50 (LOX IMVI melanoma) of the same compound?
**A.** 2.88 µM

**Q.** And the TGI (LOX IMVI melanoma)?
**A.** 16 µM

**Q.** What about the GI50 (SK-OV-3 ovarian) of the same compound?
**A.** 3.51 µM

**Q.** What about the TGI (SK-OV-3 ovarian) of the same compound?
**A.** 18.7 µM

**Q.** What about the GI50 (A498 renal) of the same compound?
**A.** 2 µM

**Q.** What about the TGI (A498 renal) of the same compound?
**A.** 5.14 µM

**Q.** What about the GI50 (NCI-H460 lung) of the same compound?
**A.** 2.81 µM

**Q.** What about the TGI (NCI-H460 lung) of the same compound?
**A.** 33.9 µM

**Q.** And the GI50 (SF-268 CNS)?
**A.** 4.93 µM

**Q.** And the TGI (SF-268 CNS)?
**A.** > 100 µM

**Q.** And the GI50 (SF-539 CNS)?
**A.** 2.11 µM

**Q.** And the TGI (SF-539 CNS)?
**A.** 13.6 µM

**Q.** And the GI50 (NCI-H522 lung)?
**A.** 3.09 µM

**Q.** And the TGI (NCI-H522 lung)?
**A.** 13.1 µM

**Q.** And the GI50 (UACC-257 melanoma)?
**A.** 16.6 µM

**Q.** And the TGI (UACC-257 melanoma)?
**A.** 47.9 µM

**Q.** What about the GI50 (EKVX NSCLC) of the same compound?
**A.** 7.15 µM

**Q.** And the TGI (EKVX NSCLC)?
**A.** 27.1 µM

**Q.** What about the GI50 (HCT-116 colon) of the same compound?
**A.** 2.94 µM

**Q.** And the TGI (HCT-116 colon)?
**A.** 10.8 µM

**Q.** What about the GI50 (SK-MEL-5 melanoma) of the same compound?
**A.** 2.23 µM

**Q.** And the TGI (SK-MEL-5 melanoma)?
**A.** 7.76 µM

**Q.** And the GI50 (SF-295 CNS)?
**A.** 5.8 µM

**Q.** And the TGI (SF-295 CNS)?
**A.** 27.4 µM

**Q.** And the GI50 (T-47D breast)?
**A.** 3.47 µM

**Q.** What about the TGI (T-47D breast) of the same compound?
**A.** 28.9 µM

**Q.** And the GI50 (HOP-62 NSCLC)?
**A.** 3.88 µM

**Q.** And the TGI (HOP-62 NSCLC)?
**A.** 15 µM

**Q.** What about the GI50 (MCF7 breast) of the same compound?
**A.** 3.17 µM

**Q.** What about the TGI (MCF7 breast) of the same compound?
**A.** > 100 µM

**Q.** What about the GI50 (OVCAR-5 ovarian) of the same compound?
**A.** 28 µM

**Q.** And the TGI (OVCAR-5 ovarian)?
**A.** 74.5 µM

**Q.** What about the GI50 (A549 NSCLC) of the same compound?
**A.** 12.5 µM

**Q.** What about the TGI (A549 NSCLC) of the same compound?
**A.** 34.2 µM

**Q.** What about the GI50 (SW-620 colon) of the same compound?
**A.** 2.23 µM

**Q.** What about the TGI (SW-620 colon) of the same compound?
**A.** 12.9 µM
